Assay results: the OligoGym collection
HELM strings list units from the 5' end as sugar, base in round brackets, then linkage (d deoxyribose, r ribose, m 2'-O-methyl, p phosphodiester). Strings are as the collection lists them; they lack the last nucleoside at the 3' end of the tested compound. [moe] = 2'-O-(2-methoxyethyl) (MOE); [sp] = phosphorothioate linkage; [m5C] = 5-methylcytosine

Biological target: UBE3A-ATS
Experiment: mouse, dose not given
Conditions: ASO

Work on “RNA1{[moe](T)[sp].[moe](G)p.[moe](A)p.[moe](T)[sp].d([m5C])[sp].d(A)[sp].d([m5C])[sp].d(A)[sp].d(T)[sp].d(T)[sp].d(A)[sp].d([m5C])[sp].[moe]([m5C])p.[moe]([m5C])p.[moe](A)p.[moe](T)[sp].[moe]([m5C])}$$$$ (last 3' nucleoside missing)” yielded a 3 h FOB score of 0 score 0-7.
With “RNA1{[moe](T)[sp].[moe](G)p.[moe](A)p.[moe](T)p.[moe](A)p.d(G)[sp].d(A)[sp].d(T)[sp].d(A)[sp].d([m5C])[sp].d(T)[sp].d(T)[sp].d(G)[sp].d(T)[sp].d(A)[sp].[moe](T)p.[moe](T)p.[moe](A)[sp].[moe](G)}$$$$ (last 3' nucleoside missing)” the 3 h FOB score was 3.8 score 0-7.
With “RNA1{[moe](T)[sp].[moe](G)p.[moe](A)p.[moe](T)p.[moe]([m5C])[sp].d(A)[sp].d([m5C])[sp].d(A)[sp].d(T)[sp].d(T)[sp].d(A)[sp].d([m5C])[sp].d([m5C])[sp].[moe]([m5C])p.[moe](A)p.[moe](T)[sp].[moe]([m5C])}$$$$ (last 3' nucleoside missing)” the 3 h FOB score was 1 score 0-7.
In the case of “RNA1{[moe](T)[sp].[moe](G)p.[moe](A)p.[moe](T)p.[moe]([m5C])p.[moe](A)[sp].d([m5C])[sp].d(A)[sp].d(T)[sp].d(T)[sp].d(A)[sp].d([m5C])[sp].d([m5C])[sp].d([m5C])[sp].[moe](A)p.[moe](T)[sp].[moe]([m5C])}$$$$ (last 3' nucleoside missing)”, the 3 h FOB score is reported as 0 score 0-7.
“RNA1{[moe](T)[sp].[moe](G)p.[moe](A)p.[moe](T)p.[moe]([m5C])p.[moe](A)p.d([m5C])[sp].d(A)[sp].d(T)[sp].d(T)[sp].d(A)[sp].d([m5C])[sp].d([m5C])[sp].d([m5C])[sp].d(A)[sp].d(T)[sp].[moe]([m5C])p.[moe]([m5C])[sp].[moe](G)}$$$$ (last 3' nucleoside missing)” gave a 3 h FOB score of 0 score 0-7.
Substance “RNA1{[moe](T)[sp].[moe](G)p.[moe](A)p.[moe](T)p.[moe]([m5C])p.d(A)[sp].d([m5C])[sp].d(A)[sp].d(T)[sp].d(T)[sp].d(A)[sp].d([m5C])[sp].d([m5C])[sp].d([m5C])[sp].d(A)[sp].[moe](T)p.[moe]([m5C])p.[moe]([m5C])[sp].[moe](G)}$$$$ (last 3' nucleoside missing)” has a 3 h FOB score of 0 score 0-7.
With “RNA1{[moe](T)[sp].[moe](G)p.[moe](A)p.[moe](T)p.[moe]([m5C])p.d(T)[sp].d(A)[sp].d(T)[sp].d(T)[sp].d(A)[sp].d(T)[sp].d(G)[sp].d(A)[sp].d(G)[sp].d(G)[sp].[moe](G)p.[moe]([m5C])p.[moe](A)[sp].[moe](T)}$$$$ (last 3' nucleoside missing)” the 3 h FOB score was 2 score 0-7.
“RNA1{[moe](T)[sp].[moe](G)p.[moe](A)p.[moe](T)p.d([m5C])[sp].d(A)[sp].d([m5C])[sp].d(A)[sp].d(T)[sp].d(T)[sp].d(A)[sp].d([m5C])[sp].d([m5C])[sp].d([m5C])[sp].[moe](A)p.[moe](T)p.[moe]([m5C])p.[moe]([m5C])[sp].[moe](G)}$$$$ (last 3' nucleoside missing)” gave a 3 h FOB score of 1 score 0-7.
“RNA1{[moe](T)[sp].[moe](G)p.[moe](G)p.[moe](G)p.[moe](T)p.d(T)[sp].d(A)[sp].d([m5C])[sp].d(T)[sp].d(T)[sp].d(T)[sp].d([m5C])[sp].d([m5C])[sp].d(A)[sp].d(A)[sp].[moe](T)p.[moe](A)p.[moe](G)[sp].[moe](A)}$$$$ (last 3' nucleoside missing)” was tested, and the 3 h FOB score was 5.7 score 0-7.
“RNA1{[moe](T)[sp].[moe](G)p.[moe](G)p.[moe](T)[sp].d([m5C])[sp].d(A)[sp].d(T)[sp].d([m5C])[sp].d(T)[sp].d([m5C])[sp].d(G)[sp].d(G)[sp].[moe](G)p.[moe](T)p.[moe](A)p.[moe](T)[sp].[moe](A)}$$$$ (last 3' nucleoside missing)” was tested, and the 3 h FOB score was 4.7 score 0-7.
Substance “RNA1{[moe](T)[sp].[moe](G)p.[moe](G)p.[moe](T)p.[moe](A)p.d(T)[sp].d(T)[sp].d(G)[sp].d(A)[sp].d([m5C])[sp].d(A)[sp].d([m5C])[sp].d([m5C])[sp].d(T)[sp].d([m5C])[sp].[moe]([m5C])p.[moe](A)p.[moe](A)[sp].[moe]([m5C])}$$$$ (last 3' nucleoside missing)” has a 3 h FOB score of 0.3 score 0-7.
For “RNA1{[moe](T)[sp].[moe](G)p.[moe](G)p.[moe](T)p.[moe]([m5C])[sp].d(A)[sp].d(T)[sp].d([m5C])[sp].d(T)[sp].d([m5C])[sp].d(G)[sp].d(G)[sp].d(G)[sp].[moe](T)p.[moe](A)p.[moe](T)[sp].[moe](A)}$$$$ (last 3' nucleoside missing)”, the 3 h FOB score was 6.3 score 0-7.
Work on “RNA1{[moe](T)[sp].[moe](G)p.[moe](G)p.[moe](T)p.[moe]([m5C])p.[moe](A)[sp].d(T)[sp].d([m5C])[sp].d(T)[sp].d([m5C])[sp].d(G)[sp].d(G)[sp].d(G)[sp].d(T)[sp].[moe](A)p.[moe](T)[sp].[moe](A)}$$$$ (last 3' nucleoside missing)” yielded a 3 h FOB score of 4.7 score 0-7.
“RNA1{[moe](T)[sp].[moe](G)p.[moe](G)p.[moe](T)p.[moe]([m5C])p.[moe](A)p.d(T)[sp].d([m5C])[sp].d(T)[sp].d([m5C])[sp].d(G)[sp].d(G)[sp].d(G)[sp].d(T)[sp].d(A)[sp].d(T)[sp].[moe](A)p.[moe](T)[sp].[moe](A)}$$$$ (last 3' nucleoside missing)” gave a 3 h FOB score of 6 score 0-7.
Work on “RNA1{[moe](T)[sp].[moe](G)p.[moe](G)p.[moe](T)p.[moe]([m5C])p.d(A)[sp].d(T)[sp].d([m5C])[sp].d(T)[sp].d([m5C])[sp].d(G)[sp].d(G)[sp].d(G)[sp].d(T)[sp].d(A)[sp].[moe](T)p.[moe](A)p.[moe](T)[sp].[moe](A)}$$$$ (last 3' nucleoside missing)” yielded a 3 h FOB score of 5.2 score 0-7.
With “RNA1{[moe](T)[sp].[moe](G)p.[moe](G)p.[moe](T)p.d([m5C])[sp].d(A)[sp].d(T)[sp].d([m5C])[sp].d(T)[sp].d([m5C])[sp].d(G)[sp].d(G)[sp].d(G)[sp].d(T)[sp].[moe](A)p.[moe](T)p.[moe](A)p.[moe](T)[sp].[moe](A)}$$$$ (last 3' nucleoside missing)” the 3 h FOB score was 4 score 0-7.
“RNA1{[moe](T)[sp].[moe](G)p.[moe](G)p.[moe]([m5C])p.[moe](A)p.d(A)[sp].d(G)[sp].d(T)[sp].d(A)[sp].d(T)[sp].d(G)[sp].d([m5C])[sp].d(T)[sp].d(A)[sp].d(G)[sp].[moe](T)p.[moe]([m5C])p.[moe](A)[sp].[moe]([m5C])}$$$$ (last 3' nucleoside missing)” was tested, and the 3 h FOB score was 2.3 score 0-7.
In the case of “RNA1{[moe](T)[sp].[moe](G)p.[moe](G)p.[moe]([m5C])p.[moe](T)p.d(T)[sp].d(T)[sp].d(A)[sp].d(T)[sp].d(A)[sp].d([m5C])[sp].d(T)[sp].d(T)[sp].d(T)[sp].d(A)[sp].[moe]([m5C])p.[moe]([m5C])p.[moe]([m5C])[sp].[moe](A)}$$$$ (last 3' nucleoside missing)”, the 3 h FOB score is reported as 0.7 score 0-7.
With “RNA1{[moe](T)[sp].[moe](G)p.[moe](T)p.[moe](A)p.[moe](T)p.d([m5C])[sp].d(A)[sp].d(G)[sp].d(G)[sp].d([m5C])[sp].d(A)[sp].d(A)[sp].d([m5C])[sp].d(A)[sp].d(G)[sp].[moe](A)p.[moe](A)p.[moe](T)[sp].[moe]([m5C])}$$$$ (last 3' nucleoside missing)” the 3 h FOB score was 4.7 score 0-7.
“RNA1{[moe](T)[sp].[moe](G)p.[moe](T)p.[moe](A)p.[moe]([m5C])p.d(A)[sp].d(A)[sp].d(A)[sp].d([m5C])[sp].d(G)[sp].d(G)[sp].d(G)[sp].d([m5C])[sp].d(T)[sp].d(A)[sp].[moe](T)p.[moe](G)p.[moe](T)[sp].[moe](G)}$$$$ (last 3' nucleoside missing)” gave a 3 h FOB score of 7 score 0-7.
With “RNA1{[moe](T)[sp].[moe](G)p.[moe](T)p.[moe](G)[sp].d([m5C])[sp].d(A)[sp].d(T)[sp].d(A)[sp].d([m5C])[sp].d([m5C])[sp].d([m5C])[sp].d(A)[sp].[moe](G)p.[moe](G)p.[moe](G)p.[moe](T)[sp].[moe](A)}$$$$ (last 3' nucleoside missing)” the 3 h FOB score was 1 score 0-7.
In the case of “RNA1{[moe](T)[sp].[moe](G)p.[moe](T)p.[moe](G)p.[moe](A)p.d(G)[sp].d(A)[sp].d(T)[sp].d(A)[sp].d(A)[sp].d(T)[sp].d(T)[sp].d([m5C])[sp].d(A)[sp].d(G)[sp].[moe](G)p.[moe](A)p.[moe](G)[sp].[moe](G)}$$$$ (last 3' nucleoside missing)”, the 3 h FOB score is reported as 5 score 0-7.
“RNA1{[moe](T)[sp].[moe](G)p.[moe](T)p.[moe](G)p.[moe](G)p.d(G)[sp].d([m5C])[sp].d([m5C])[sp].d(T)[sp].d([m5C])[sp].d(T)[sp].d(A)[sp].d(T)[sp].d(T)[sp].d(A)[sp].[moe](A)p.[moe](G)p.[moe](A)[sp].[moe](T)}$$$$ (last 3' nucleoside missing)” gave a 3 h FOB score of 1 score 0-7.
“RNA1{[moe](T)[sp].[moe](G)p.[moe](T)p.[moe](G)p.[moe](T)p.[moe](G)p.d(T)[sp].d(T)[sp].d(T)[sp].d(T)[sp].d(T)[sp].d([m5C])[sp].d([m5C])[sp].d(A)[sp].d(T)[sp].d(T)[sp].[moe](T)p.[moe](T)[sp].[moe](T)}$$$$ (last 3' nucleoside missing)” was tested, and the 3 h FOB score was 0 score 0-7.
Work on “RNA1{[moe](T)[sp].[moe](G)p.[moe](T)p.[moe](G)p.[moe](T)p.[moe](T)p.d(T)[sp].d(T)[sp].d(T)[sp].d([m5C])[sp].d([m5C])[sp].d(A)[sp].d(T)[sp].d(T)[sp].d(T)[sp].d(T)[sp].[moe](T)p.[moe]([m5C])[sp].[moe](T)}$$$$ (last 3' nucleoside missing)” yielded a 3 h FOB score of 0 score 0-7.
“RNA1{[moe](T)[sp].[moe](G)p.[moe](T)p.[moe](G)p.[moe](T)p.d(G)[sp].d(T)[sp].d(T)[sp].d(T)[sp].d(T)[sp].d(T)[sp].d([m5C])[sp].d([m5C])[sp].d(A)[sp].d(T)[sp].[moe](T)p.[moe](T)p.[moe](T)[sp].[moe](T)}$$$$ (last 3' nucleoside missing)” was tested, and the 3 h FOB score was 0 score 0-7.
In the case of “RNA1{[moe](T)[sp].[moe](G)p.[moe](T)p.[moe](G)p.[moe](T)p.d(T)[sp].d(T)[sp].d(T)[sp].d(T)[sp].d([m5C])[sp].d([m5C])[sp].d(A)[sp].d(T)[sp].d(T)[sp].d(T)[sp].[moe](T)p.[moe](T)p.[moe]([m5C])[sp].[moe](T)}$$$$ (last 3' nucleoside missing)”, the 3 h FOB score is reported as 0 score 0-7.
